Data: PubChem BioAssay (NCI)
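These data come from cells grown in 96-well plates and exposed to compound for 48 hours at five concentrations. GI50 marks 50% less growth. TGI: concentration producing complete growth inhibition.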

Key:
Assay in all cases: DTP human tumour cell line panel, 48 h
[1] = tested on: IGROV1 ovarian
[2] = tested on: U251 CNS
[3] = tested on: OVCAR-4 ovarian
[4] = tested on: HL-60(TB) leukemia
[5] = tested on: SNB-19 CNS
[6] = tested on: MOLT-4 leukemia
[7] = tested on: 786-0 renal
[8] = tested on: OVCAR-5 ovarian
[9] = tested on: SW-620 colon
[10] = tested on: T-47D breast
[11] = tested on: NCI-H23 lung
[12] = tested on: TK-10 renal
[13] = tested on: COLO 205 colon
[14] = tested on: SF-268 CNS
[15] = tested on: MDA-MB-468 breast
[16] = tested on: SN12C renal
[17] = tested on: MDA-MB-231 breast
[18] = tested on: SR leukemia
[19] = tested on: A549 NSCLC
[20] = tested on: RXF 393 renal
[21] = tested on: HCT-116 colon
[22] = tested on: UACC-62 melanoma
[23] = tested on: NCI-H226 lung
[24] = tested on: HS 578T breast
[25] = tested on: HT29 colon
[26] = tested on: MCF7 breast
[27] = tested on: K-562 leukemia
[28] = tested on: SK-MEL-5 melanoma
[29] = tested on: UACC-257 melanoma
[30] = tested on: HOP-62 NSCLC
[31] = tested on: M14 melanoma
[32] = tested on: SF-295 CNS
[33] = tested on: SK-MEL-2 melanoma
[34] = tested on: PC-3 prostate
[35] = tested on: OVCAR-8 ovarian
[36] = tested on: HCT-15 colon
[37] = tested on: RPMI-8226 leukemia
[38] = tested on: HOP-92 NSCLC
[39] = tested on: SK-MEL-28 melanoma
[40] = tested on: SK-OV-3 ovarian
[41] = tested on: LOX IMVI melanoma
[42] = tested on: MALME-3M melanoma
[43] = tested on: SNB-75 CNS
[44] = tested on: HCC-2998 colon
[45] = tested on: CCRF-CEM leukemia
[46] = tested on: SF-539 CNS
[47] = tested on: CAKI-1 renal
[48] = tested on: NCI/ADR-RES ovarian
[49] = tested on: MDA-MB-435
[50] = tested on: KM12 colon
[51] = tested on: ACHN renal
[52] = tested on: OVCAR-3 ovarian
[53] = tested on: EKVX NSCLC
[54] = tested on: NCI-H522 lung
[55] = tested on: UO-31 renal
[56] = tested on: DU-145 prostate
[57] = tested on: A498 renal
[58] = tested on: NCI-H460 lung
[59] = tested on: BT-549 breast

COc1ccc(CN2[C@@H](C(=O)NCc3ccc(C(=O)NO)cc3)Cc3c([nH]c4ccccc34)[C@@H]2C)cc1
GI50 [1]: 2.56 µM
TGI [1]: 5.78 µM
GI50 [2]: 2.88 µM
TGI [2]: 8.88 µM
GI50 [3]: 4.58 µM
TGI [3]: > 21 µM
GI50 [4]: 2.65 µM
TGI [4]: 15.4 µM
GI50 [5]: 3.49 µM
TGI [5]: 8.5 µM
GI50 [6]: 1.6 µM
TGI [6]: > 21 µM
GI50 [7]: 5.15 µM
TGI [7]: > 21 µM
GI50 [8]: 1.43 µM
TGI [8]: 8.11 µM
GI50 [9]: 2.34 µM
TGI [9]: 11.2 µM
GI50 [10]: 3.56 µM
TGI [10]: 12.8 µM
GI50 [11]: 3.33 µM
TGI [11]: 7.51 µM
GI50 [12]: 2.6 µM
TGI [12]: 11.4 µM
GI50 [13]: 3.59 µM
TGI [13]: 8.33 µM
GI50 [14]: 4.21 µM
TGI [14]: 11.2 µM
GI50 [15]: 0.861 µM
TGI [15]: 4.45 µM
GI50 [16]: 3.88 µM
TGI [16]: 13 µM
GI50 [17]: 2.67 µM
TGI [17]: 5.73 µM
GI50 [18]: 0.335 µM
TGI [18]: > 21 µM
GI50 [19]: 4.3 µM
TGI [19]: 16.5 µM
GI50 [20]: 0.724 µM
TGI [20]: 3.71 µM
GI50 [21]: 1.47 µM
TGI [21]: > 21 µM
GI50 [22]: 2.08 µM
TGI [22]: 5.29 µM
GI50 [23]: 1.98 µM
TGI [23]: 10.2 µM
GI50 [24]: 1.26 µM
TGI [24]: 13 µM
GI50 [25]: 3.84 µM
TGI [25]: > 21 µM
GI50 [26]: 3.02 µM
TGI [26]: 13.8 µM
GI50 [27]: 1.93 µM
TGI [27]: > 21 µM
GI50 [28]: 2.96 µM
TGI [28]: 6.02 µM
GI50 [29]: 2.19 µM
TGI [29]: 14.4 µM
GI50 [30]: 2.56 µM
TGI [30]: 7.92 µM
GI50 [31]: 4.05 µM
TGI [31]: > 21 µM
GI50 [32]: 3.02 µM
TGI [32]: 6.21 µM
GI50 [33]: 3.32 µM
TGI [33]: 7.3 µM
GI50 [34]: 3.02 µM
TGI [34]: > 21 µM
GI50 [35]: 2.44 µM
TGI [35]: 8.91 µM
GI50 [36]: 4.56 µM
TGI [36]: 19.8 µM
GI50 [37]: 3.03 µM
TGI [37]: > 21 µM
GI50 [38]: 2.2 µM
TGI [38]: 6.25 µM
GI50 [39]: 2.6 µM
TGI [39]: 8.76 µM
GI50 [40]: 2.58 µM
TGI [40]: 6.14 µM
GI50 [41]: 3.23 µM
TGI [41]: 6.3 µM
GI50 [42]: 0.874 µM
TGI [42]: 4.86 µM
GI50 [43]: 1.23 µM
TGI [43]: 7.27 µM
GI50 [44]: 2.72 µM
TGI [44]: 5.81 µM
GI50 [45]: 1.27 µM
TGI [45]: > 21 µM
GI50 [46]: 2.7 µM
TGI [46]: 7.12 µM
GI50 [47]: 2.83 µM
TGI [47]: 7.86 µM
GI50 [48]: 8.01 µM
TGI [48]: > 21 µM
GI50 [49]: 1.27 µM
TGI [49]: 5.56 µM
GI50 [50]: 3.3 µM
TGI [50]: 7.85 µM
GI50 [51]: 3.67 µM
TGI [51]: 9.07 µM
GI50 [52]: 2.51 µM
TGI [52]: 7.84 µM
GI50 [53]: 2.24 µM
TGI [53]: 13.5 µM
GI50 [54]: 1.43 µM
TGI [54]: 5.35 µM
GI50 [55]: 2.93 µM
TGI [55]: 6.19 µM
GI50 [56]: 4.41 µM
TGI [56]: 17.8 µM
GI50 [57]: 0.822 µM
TGI [57]: 6.26 µM
GI50 [58]: 2.86 µM
TGI [58]: 10.6 µM
GI50 [59]: 5.95 µM
TGI [59]: 15.6 µM
